melting point: 150 to 151 °C
SMILES: C[C@@H]1NC(=O)[C@H]2Cc3c([nH]c4ccccc34)[C@@H](c3ccc4occc4c3)N2C1=O [Example 123, (3S, 6R, 12aR)-2,3,6,7, 12, 12a-Hexahydro-6-(5-Benzofuranyl)-3-Methyl-Pyrazino[2′,1′:6,1]Pyrido [3,4-b]Indole-1,4-Dione]

Reference: patent US20020035111A1, “Method of inhibiting neoplastic cells with tetracyclic pyrido[3,4-B] indole derivatives” (priority 1998, published 2002)
